Results as given in US20110293745A1, “AURORA KINASE INHIBITORS” (SUNESIS PHARMACEUTICALS, INC., priority 2008, published 2011).

Experiments:
[1] = Protein binding, Rapid Equilibrium Dialysis; assay type: in vitro ADME; settings: 15 μM
Procedure: Studies were performed using the Rapid Equilibrium Dialysis (RED) device (Linden Bioscience). Inserts were soaked in water for 10 min×2, then removed and drained immediately prior to use. […] All experiments were performed in duplicate and each chamber was sampled in duplicate. The samples were incubated for 4-6 h at 37° C. in a rotating incubator (100 rpm). Compound 2 was quantified using LC-MS/MS. Data from duplicate samples each sampled twice.

HCT 116 cells = test: Flow cytometry, DNA content (propidium iodide); assay type: cell-based, human; settings: 36 nM, 16 hours
Procedure: HCT 116 cells were seeded at 10,000 cells per well in 12-well plates and cells were incubated 24 hr at 37° C. […] After 16 hrs, media was aspirated and placed in a labeled collection tube, cells were trypsinized with 100 μL trypsin for 5 min at room temperature, quenched with fresh media, and placed in the collection tube with their appropriate media aspirate. Cells were spun at 2000 RPM for 5 min, supernatant was aspirated, and cells were re-suspended in 50 μl, 1× phosphate buffered saline (PBS) and 200 μL 100% methanol. Samples were then placed at −20° C. Cells fixed in methanol were spun at 2000 RPM for 5 min, supernatant was removed and cells were washed with 500 μL 0.1% bovine serum albumin (BSA) in PBS. Cells were re-suspended in 100 μL propidium iodide (PI) staining solution [prepared from 10 μg/mL PI (Sigma #P4864), 100 μg/mL RNase (Sigma #R4642) in PBS] and incubated at 37° C. for 1 hr. Cell populations were then analyzed by flow cytometry on Fluorescence-Activated Cell Sorter (FACS) instrumentation (FACSCalibur; Becton-Dickinson) according to common techniques. The distribution of cells in the various phases of cell cycle was assessed by propidium iodide (PI) staining of DNA. The total intensity of PI was considered to reflect the DNA content of cells.

HT-29 = test: cells; settings: Homo sapiens, HT-29, 16 h, read-out: Cell Cycle EC50
[2] = tested on: histone H3 phosphorylation in femur bone marrow; test: pHH3 immunohistochemistry in mouse bone marrow; assay type: in vivo; settings: for bone marrow cells positive for pHH3, times less evident than vehicle: 170 mg/kg IP BIW×3
Procedure: (§1) For each study, animals were randomized by tumor volume and distributed into groups of ten animals each. […] Inhibition of histone H3 (HH3) phosphorylation was evaluated in HCT 116 xenograft tumors, mouse femur bone marrow, and mouse skin punch biopsy sections by immunohistochemistry (IHC). […] The tumors were collected 6 hrs post-dose on day 4, 11, 18 and on day 25 (one week after completion of dosing phase of the experiment). Phosphorylated histone H3 (pHH3) was detected by immunohistochemistry staining of tissue sections with the antibody # 9701 (Cell Signaling Technology, Inc.), which recognizes phosphorylation of Ser10 residue in histone H3 protein.

MiaPaca2 = test: Cell cycle analysis (cells with ≧4N DNA content); assay type: cell-based; settings: Homo sapiens, MIA PaCa-2, MiaPaca2, 16 hours
Text: Cells were fixed, stained, and analyzed.

[3] = tested on: pHH3 in HCT 116 tumor xenograft; test: Phospho-histone H3 in vivo (Western blot of tumor); set-up: species or system mouse; settings: single 50 mg/kg and 100 mg/kg IP; 3 hr, 6 hr, 10 hr post administration
Text: For each of the studies of compound distribution, pHH3 levels, and tumor section microscopy, after the tumors reached an average volume of 500 mm^3, the animals were weighed and sorted into randomized groups before initial dosing.

[4] = tested on: histone H3 phosphorylation in epidermis; test: pHH3 immunohistochemistry in mouse skin punches; assay type: in vivo
Procedure: as §1, with “protein. […] Three mice in each group were sacrificed on day 4 and day 18, 6 hours post-dose. Skin punches (8 mm) were fixed in formalin, trimmed, and sections stained to identify cells positive for histone H3 phosphorylation.” for “protein.”

Calu-6 = test: cells; settings: Homo sapiens, Calu-6, 16 h, read-out: Cell Cycle EC50
Procedure: (§2) Cells were fixed, stained, and analyzed. The percentage of cells with ≧4N DNA content as a function of concentration was fit to estimate EC50. For cell cycle analysis on nonadherent cells or cells with irregular morphology (A2780, HL-60, CCRF-CEM, and HT-29), tumor cells were seeded in 12-well tissue culture plates overnight at 37° C. […] Cells were trypsinized, collected, stained with propidium iodide, and analyzed by flow cytometry.

A375 = test: cells; settings: Homo sapiens, A-375, 16 h, read-out: Cell Cycle EC50
Procedure: as §2

H1299 = test: cells; settings: Homo sapiens, NCI-H1299, 16 h, read-out: Cell Cycle EC50
Procedure: as §2

HCT116 = test: cells; settings: Homo sapiens, HCT-116, 16 h, read-out: Cell Cycle EC50
Procedure: as §2

HeLa = test: cells; settings: Homo sapiens, 16 h, read-out: Cell Cycle EC50
Procedure: as §2

HL-60 = test: cells; settings: Homo sapiens, HL-60, 16 h, read-out: Cell Cycle EC50
Procedure: as §2

MDA-MB-231 = test: cells; settings: Homo sapiens, MDA-MB-231, 16 h, read-out: Cell Cycle EC50
Procedure: as §2

PC3 = test: cells; settings: Homo sapiens, PC-3, 16 h, read-out: Cell Cycle EC50
Procedure: as §2

A2780 = test: cells; settings: Homo sapiens, A2780, 16 h, read-out: Cell Cycle EC50
Procedure: as §2

CCRF-CEM = test: cells; settings: Homo sapiens, 16 h, read-out: Cell Cycle EC50
Procedure: as §2

O=C(Nc1cccc(Cl)c1)Nc1ncc(CCNc2ncnc3ccsc23)s1 [Compound 2, 1-(3-chlorophenyl)-3-{5-[2-(thieno[3,2-d]pyrimidin-4-ylamino)ethyl]thiazol-2-yl}-urea]
mean percentage protein-bound ([1]; dog plasma): greater than or equal to 99.9% | mean percentage protein-bound ([1]; human plasma): greater than or equal to 99.9% | mean percentage protein-bound ([1]; mouse plasma): greater than or equal to 99.9%

CS(=O)(=O)O.O=C(Nc1cccc(Cl)c1)Nc1ncc(CCNc2ncnc3ccsc23)s1 [Compound 1, 1-(3-chlorophenyl)-3-{5-[2-(thieno[3,2-d]pyrimidin-4-ylamino)ethyl]thiazo}-urea]
DNA content of cells (HCT 116 cells): predominantly 4N and 8N DNA content | EC50 (HT-29): 12 nM | bone marrow cells positive for pHH3, times less evident than vehicle ([2]; day 11): 3 times | bone marrow cells positive for pHH3, times less evident than vehicle ([2]; day 18): 7 times | Histone H3 phosphorylation in bone marrow ([2]; day 25): recovered to normal levels | EC50 (MiaPaca2): 9 nM | level of pHH3 in tumor versus vehicle-treated mice [3]: decreased | reduction of number of phospho-histone H3 positively stained cells in epidermis versus vehicle ([4]; 150 mg/kg biweekly for 3 weeks, day 4 and day 18, 6 hours post-dose): ~50% | number of positively stained cells in epidermis versus vehicle ([4]; day 25): still decreased | EC50 (Calu-6): 13 nM | EC50 (A375): 93 nM | EC50 (H1299): 80 nM | EC50 (HCT116): 34 nM | EC50 (HeLa): 290 nM | EC50 (HL-60): 7 nM | EC50 (MDA-MB-231): 30 nM | EC50 (PC3): 11 nM | EC50 (A2780): 6.1 nM | EC50 (CCRF-CEM): 4.2 nM
